{"source": "patent US10619209B2", "about": "“Serotonin transporter gene and treatment of opioid-related disorders” (University of Virginia Patent Foundation, priority 2008, dated 2020)", "key": {"[1]": {"system": "alcohol-dependent individuals", "test": "12-week randomized controlled pharmacotherapy trial of ondansetron by 5'-HTTLPR genotype (Example 3)", "assay_type": "in vivo, human", "conditions": "for mean (SEM) DDD reduction from baseline across the treatment period: ondansetron 4 μg/kg b.i.d., 12 weeks", "text": "In a pre-planned interim analysis, data were examined for the 226 alcohol-dependent individuals (aged 18-65 years) enrolled into the 12-week randomized controlled pharmacotherapy trial to determine the effect of ondansetron on drinking among individuals who varied on allelic difference at the 5-HTT gene and age of alcoholism onset. All these individuals were enrolled at the University of Texas Health Science Center at San Antonio. Briefly, the study design was 2 (LL vs. LS/SS)×2 (early onset vs. late onset)×2 (ondansetron 4 μg/kg b.i.d. vs. placebo). The inferential results below are for the severity of drinking—drinks/drinking day (DDD).\nDemographic data were that: 74% were male and 26% female; 48% were early-onset alcoholics and 52% late-onset alcoholics, and 20% were Hispanic and 80% White. There were no significant differences (P>0.05) on demographics between the treatment groups. Baseline mean (SD) DDD (past 90 days) were also similar for the ondansetron 4 μg/kg b.i.d. and placebo groups—9.83 (4.63) vs. 9.85 (4.49), respectively. The inferential analyses were conducted on all randomized subjects according to the intent-to-treat principle. The analytic plan was first to calculate the DDD in each week. We then used the difference between weekly DDD and the baseline DDD (in the past 90 days) as repeat measures. A mixed-model approach (SAS PROC MIXED) was used to study the effect of treatment, genotype (LL vs. LS/SS), treatment and genotype interaction, age, age of onset (early vs. late), gender, and age at onset of problem drinking, adjusting for the baseline DDD level. Also included is a random slope for time to study the variation in the time trend of the weekly DDD."}, "[2]": {"system": "alcohol-dependent men and women", "test": "12-week treatment trial of ondansetron by 5'-HTTLPR and rs1042173 genotype (Example 4)", "assay_type": "in vivo, human", "procedure": "289 alcohol-dependent men and women enrolled in a 12-week treatment trial in which they received either ondansetron (4 μg/kg) or placebo. All subjects also received weekly cognitive behavioral therapy as their standardized psychosocial treatment. Genotyping was conducted on all subjects. Mixed-effects models were used to study the effect of treatment and genotype and their interaction for each of the primary drinking outcomes. The models included random intercept and random slope and were adjusted for covariates such as participants' average 90-day drinking levels prior to the study, age, gender, ethnicity (Caucasian and Hispanic), and center. A variance-components covariance matrix was used to model different variances for the intercept and slope and a covariance between them. Interactions of treatment, genotype, age, and center were first included in the models. They were excluded from the final models if not significant."}, "[3]": {"conditions": "cited from earlier work"}, "[4]": {"conditions": "alcohol trials; 50 mg/day; cited from earlier work"}, "[5]": {"conditions": "placebo vs. treatment, LL genotype"}, "[6]": {"conditions": "placebo vs. treatment, LS/SS genotype"}, "[7]": {"conditions": "treatment (ondansetron) group, LS/SS vs. LL"}}, "note": "Structures can show the parent of a compound that is named as a salt.", "data": [{"smiles": "Cc1nccn1CC1CCc2c(c3ccccc3n2C)C1=O", "note": "(centres unmarked) [ondansetron, 9-methyl-3-[(2-methyl-1H-imidazol-1-yl)methyl]-1,2,3,9-tetrahydrocarbazol-4-one]", "values": [{"measurement": "mean (SEM) DDD reduction from baseline across the treatment period", "setting": "[1]; LL genotype", "value": "5.70 (0.64) DDD"}, {"measurement": "mean (SEM) DDD reduction from baseline across the treatment period", "setting": "[1]; LS/SS genotype", "value": "3.45 (0.44) DDD"}, {"measurement": "Cohen's d", "setting": "[1]; [5]", "value": 0.08}, {"measurement": "Estimate (cell contrast on DDD)", "setting": "[1]; [5]", "value": 2.16, "unit": "DDD"}, {"measurement": "Cohen's d", "setting": "[1]; [6]", "value": 0.04}, {"measurement": "Estimate (cell contrast on DDD)", "setting": "[1]; [6]", "value": "−0.80", "unit": "DDD"}, {"measurement": "Cohen's d", "setting": "[1]; [7]", "value": 0.10}, {"measurement": "Estimate (cell contrast on DDD)", "setting": "[1]; [7]", "value": 2.25, "unit": "DDD"}, {"measurement": "mean difference in DDD", "setting": "[2]; LL genotype, treatment group vs placebo group", "value": "−1.50", "unit": "DDD"}, {"measurement": "mean difference in DDD", "setting": "[2]; treated with ondansetron 4 μg/kg, LL vs LS/SS genotype", "value": "−1.41", "unit": "DDD"}, {"measurement": "mean difference in DDD", "setting": "[2]; treated with ondansetron 4 μg/kg, TT vs TG/GG genotype of rs1042173", "value": "−1.31", "unit": "DDD"}]}, {"smiles": "CC1(C)O[C@@H]2[C@@H](CO[C@@]3(COS(N)(=O)=O)OC(C)(C)O[C@@H]23)O1", "note": "[topiramate, 2,3:4,5-Bis-O-(1-methylethylidene)-beta-D-fructopyranose sulfamate]", "values": [{"measurement": "individuals reporting cognitive impairment", "setting": "[3]; general population", "value": 2.4, "unit": "%"}, {"measurement": "occurrence rate of cognitive impairment", "setting": "[3]; substance abuse field", "value": "about 18.7%"}]}, {"smiles": "O=C1CC[C@@]2(O)[C@H]3Cc4ccc(O)c5c4[C@@]2(CCN3CC2CC2)[C@H]1O5", "note": "[naltrexone, 17-(Cyclopropylmethyl)-4,5a-epoxy-3,14-dihydroxymorphinan-6-one hydrochloride]", "values": [{"measurement": "individuals unable to tolerate the dose", "setting": "[4]", "value": "about 15%"}]}]}
